Results published in patent US8653263B2 (Janssen Pharmaceutica, priority 2009, dated 2014).

Target: human orexin-2 receptor (Homo sapiens (Human), UniProt O43614)
Assay: Human orexin 2 receptor radioligand binding ([3H]-EMPA competition)
Details: HEK293 cells stably expressing human orexin-2 receptor; [3H]-EMPA 5 nM final; apparent Ki=IC50/(1+C/Kd), Kd=2 nM; read-out: OR 2 Ki

Chain of human orexin-2 receptor (O43614 whole entry): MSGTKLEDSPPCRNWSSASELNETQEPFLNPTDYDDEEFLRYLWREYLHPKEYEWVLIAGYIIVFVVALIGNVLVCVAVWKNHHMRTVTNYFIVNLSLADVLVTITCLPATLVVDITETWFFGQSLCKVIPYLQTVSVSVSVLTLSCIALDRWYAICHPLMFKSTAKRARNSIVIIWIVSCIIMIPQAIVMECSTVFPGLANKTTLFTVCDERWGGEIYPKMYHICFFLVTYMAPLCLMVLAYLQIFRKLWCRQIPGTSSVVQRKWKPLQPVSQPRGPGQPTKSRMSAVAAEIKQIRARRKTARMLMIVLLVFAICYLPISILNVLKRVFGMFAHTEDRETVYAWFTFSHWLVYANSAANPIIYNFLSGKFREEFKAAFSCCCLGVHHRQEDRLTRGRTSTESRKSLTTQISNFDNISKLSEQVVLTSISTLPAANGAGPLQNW

Row | Ki | Structure (SMILES)
1 | 5000 nM | Cc1cc(C)nc(N2CC3CN(C(=O)c4cnnc5ccccc45)CC3C2)n1 (stereo not drawn) [Example 203, Cinnolin-4-yl-[5-(4,6-dimethyl-pyrimidin-2-yl)-hexahydro-pyrrolo[3,4-c]pyrrol-2-yl]-methanone]
2 | 50 nM | Cc1cc(N2CC3CN(C(=O)c4cc(F)ccc4-c4ncccn4)CC3C2)nc(C(F)(F)F)n1 (stereo not drawn) [Example 204, (5-Fluoro-2-pyrimidin-2-yl-phenyl)-[5-(6-methyl-2-trifluoromethyl-pyrimidin-4-yl)-hexahydro-pyrrolo[3,4-c]pyrrol-2-yl]-methanone]
3 | 3190 nM | Cc1cc(C)nc(N2CC3CN(C(=O)c4ccccc4-n4ccnn4)CC3C2)n1 (stereo not drawn) [Example 205, [5-(4,6-Dimethyl-pyrimidin-2-yl)-hexahydro-pyrrolo[3,4-c]pyrrol-2-yl]-(2-[1,2,3]triazol-1-yl-phenyl)-methanone]
4 | 9000 nM | COc1cc(OC)nc(N2CC3CN(C(=O)c4ncccc4-c4ccccc4)CC3C2)n1 (stereo not drawn) [Example 207, [5-(4,6-Dimethoxy-pyrimidin-2-yl)-hexahydro-pyrrolo[3,4-c]pyrrol-2-yl]-(3-phenyl-pyridin-2-yl)-methanone]
5 | 2100 nM | Cc1cc(C)nc(N2CC3CN(C(=O)c4ncccc4-c4ccccc4)CC3C2)n1 (stereo not drawn) [Example 208, [5-(4,6-Dimethyl-pyrimidin-2-yl)-hexahydro-pyrrolo[3,4-c]pyrrol-2-yl]-(3-phenyl-pyridin-2-yl)-methanone]
6 | 9000 nM | CCCc1nc(C)cc(N2CC3CN(C(=O)c4ccccc4-n4nccn4)CC3C2)n1 (stereo not drawn) [Example 209, [5-(6-Methyl-2-propyl-pyrimidin-4-yl)-hexahydro-pyrrolo[3,4-c]pyrrol-2-yl]-(2-[1,2,3]triazol-2-yl-phenyl)-methanone]
7 | 3000 nM | Cc1nccc(N2CC3CN(C(=O)c4ccccc4-n4nccn4)CC3C2)n1 (stereo not drawn) [Example 210, [5-(2-Methyl-pyrimidin-4-yl)-hexahydro-pyrrolo[3,4-c]pyrrol-2-yl]-(2-[1,2,3]triazol-2-yl-phenyl)-methanone]
8 | 44 nM | Cc1cncc(N2CC3CN(C(=O)c4ccccc4-n4nccn4)CC3C2)n1 (stereo not drawn) [Example 211, [5-(6-Methyl-pyrazin-2-yl)-hexahydro-pyrrolo[3,4-c]pyrrol-2-yl]-(2-[1,2,3]triazol-2-yl-phenyl)-methanone]
9 | 33 nM | Cc1cnc(C)c(N2CC3CN(C(=O)c4cc(F)ccc4-c4ncccn4)CC3C2)n1 (stereo not drawn) [Example 212, [5-(3,6-Dimethyl-pyrazin-2-yl)-hexahydro-pyrrolo[3,4-c]pyrrol-2-yl]-(5-fluoro-2-pyrimidin-2-yl-phenyl)-methanone]
10 | 56 nM | Cc1cnc(C)c(N2CC3CN(C(=O)c4ccccc4-c4ncn[nH]4)CC3C2)n1 (stereo not drawn) [Example 213, [5-(3,6-Dimethyl-pyrazin-2-yl)-hexahydro-pyrrolo[3,4-c]pyrrol-2-yl]-[2-(2H-[1,2,4]triazol-3-yl)-phenyl]-methanone]
11 | 1230 nM | O=C(c1ccccc1-n1nccn1)N1CC2CN(c3cc(C(F)(F)F)nc(N4CCCC4)n3)CC2C1 (stereo not drawn) [Example 214, [5-(2-Pyrrolidin-1-yl-6-trifluoromethyl-pyrimidin-4-yl)-hexahydro-pyrrolo[3,4-c]pyrrol-2-yl]-(2-[1,2,3]triazol-2-yl-phenyl)-methanone]
12 | 404 nM | Cc1cc(C)nc(N2CC3CN(C(=O)c4cccc(C)c4C)CC3C2)n1 (stereo not drawn) [Example 219, 2-[(2,3-Dimethylphenyl)carbonyl]-5-(4,6-dimethylpyrimidin-2-yl)octahydropyrrolo[3,4-c]pyrrole]
13 | 500 nM | Cc1cc(C)nc(N2CC3CN(C(=O)c4cccc(F)c4C)CC3C2)n1 (stereo not drawn) [Example 220, 2-(4,6-Dimethylpyrimidin-2-yl)-5-[(3-fluoro-2-methylphenyl)carbonyl]octahydropyrrolo[3,4-c]pyrrole]
14 | 2210 nM | Cc1cc(C)nc(N2CC3CN(C(=O)c4cc(F)ccc4C(F)(F)F)CC3C2)n1 (stereo not drawn) [Example 221, 2-(4,6-Dimethylpyrimidin-2-yl)-5-{[5-fluoro-2-(trifluoromethyl)phenyl]carbonyl}octahydropyrrolo[3,4-c]pyrrole]
15 | 3620 nM | COc1cc(Cl)ccc1C(=O)N1CC2CN(c3nc(C)cc(C)n3)CC2C1 (stereo not drawn) [Example 222, 2-[(4-Chloro-2-methoxyphenyl)carbonyl]-5-(4,6-dimethylpyrimidin-2-yl)octahydropyrrolo[3,4-c]pyrrole]
16 | 340 nM | Cc1cc(C)nc(N2CC3CN(C(=O)c4cc(Cl)ccc4C)CC3C2)n1 (stereo not drawn) [Example 223, 2-[(5-Chloro-2-methylphenyl)carbonyl]-5-(4,6-dimethylpyrimidin-2-yl)octahydropyrrolo[3,4-c]pyrrole]
17 | 635 nM | Cc1ccc(C)c(C(=O)N2CC3CN(c4nc(C)cc(C)n4)CC3C2)c1 (stereo not drawn) [Example 224, 2-[(2,5-Dimethylphenyl)carbonyl]-5-(4,6-dimethylpyrimidin-2-yl)octahydropyrrolo[3,4-c]pyrrole]
18 | 423 nM | Cc1cc(C)nc(N2CC3CN(C(=O)c4c(C)cccc4C)CC3C2)n1 (stereo not drawn) [Example 225, 2-[(2,6-Dimethylphenyl)carbonyl]-5-(4,6-dimethylpyrimidin-2-yl)octahydropyrrolo[3,4-c]pyrrole]

Row | Ki | Structure (SMILES)
19 | 836 nM | Cc1cc(C)nc(N2CC3CN(C(=O)c4cc(F)ccc4C)CC3C2)n1 (stereo not drawn) [Example 226, 2-(4,6-Dimethylpyrimidin-2-yl)-5-[(5-fluoro-2-methylphenyl)carbonyl]octahydropyrrolo[3,4-c]pyrrole]
20 | 1470 nM | Cc1ccc(C(=O)N2CC3CN(c4nc(C)cc(C)n4)CC3C2)c(C)c1 (stereo not drawn) [Example 227, 2-[(2,4-Dimethylphenyl)carbonyl]-5-(4,6-dimethylpyrimidin-2-yl)octahydropyrrolo[3,4-c]pyrrole]
21 | 184 nM | CCOc1ccc(OCC)c(C(=O)N2CC3CN(c4nc(C)cc(C)n4)CC3C2)c1 (stereo not drawn) [Example 228, 2-[(2,5-Diethoxyphenyl)carbonyl]-5-(4,6-dimethylpyrimidin-2-yl)octahydropyrrolo[3,4-c]pyrrole]
22 | 319 nM | CCOc1cccc(OCC)c1C(=O)N1CC2CN(c3nc(C)cc(C)n3)CC2C1 (stereo not drawn) [Example 229, 2-[(2,6-Diethoxyphenyl)carbonyl]-5-(4,6-dimethylpyrimidin-2-yl)octahydropyrrolo[3,4-c]pyrrole]
23 | 254 nM | Cc1cc(C)nc(N2CC3CN(C(=O)c4c(C)cccc4Cl)CC3C2)n1 (stereo not drawn) [Example 230, 2-[(2-Chloro-6-methylphenyl)carbonyl]-5-(4,6-dimethylpyrimidin-2-yl)octahydropyrrolo[3,4-c]pyrrole]
24 | 68 nM | Cc1cc(C)nc(N2CC3CN(C(=O)c4ccc(F)cc4-c4ncccn4)CC3C2)n1 (stereo not drawn) [Example 231, (5-(4,6-Dimethylpyrimidin-2-yl)hexahydropyrrolo[3,4-c]pyrrol-2(1H)-yl)(4-fluoro-2-(pyrimidin-2-yl)phenyl)methanone]
25 | 52 nM | Cc1cc(C)nc(N2CC3CN(C(=O)c4cccc(F)c4I)CC3C2)n1 (stereo not drawn) [Example 232, (5-(4,6-Dimethylpyrimidin-2-yl)hexahydropyrrolo[3,4-c]pyrrol-2(1H)-yl)(3-fluoro-2-iodophenyl)methanone]
26 | 2100 nM | Cc1cc(C)nc(N2CC3CN(C(=O)c4cccnc4C(F)(F)F)CC3C2)n1 (stereo not drawn) [Example 233, 2-(4,6-Dimethylpyrimidin-2-yl)-5-{[2-(trifluoromethyl)pyridin-3-yl]carbonyl}octahydropyrrolo[3,4-c]pyrrole]
27 | 10000 nM | Cc1cc(C)nc(N2CC3CN(C(=O)c4cccnc4Br)CC3C2)n1 (stereo not drawn) [Example 234]
28 | 560 nM | Cc1cc(C)nc(N2CC3CN(C(=O)c4cccnc4-c4ncccn4)CC3C2)n1 (stereo not drawn) [Example 235, (5-(4,6-Dimethylpyrimidin-2-yl)hexahydropyrrolo[3,4-c]pyrrol-2(1H)-yl)(2-(pyrimidin-2-yl)pyridin-3-yl)methanone]
29 | 10000 nM | Cc1cc(C)nc(N2CC3CN(C(=O)c4cccnc4-c4ccnn4C4CCCCO4)CC3C2)n1 (stereo not drawn) [Example 236, (5-(4,6-Dimethylpyrimidin-2-yl)hexahydropyrrolo[3,4-c]pyrrol-2(1H)-yl)(2-(1-(tetrahydro-2H-pyran-2-yl)-1H-pyrazol-5-yl)pyridin-3-yl)methanone]
30 | 69 nM | Cc1cc(C)nc(N2CC3CN(C(=O)c4cccnc4-c4ccn[nH]4)CC3C2)n1 (stereo not drawn) [Example 237, (2-(1H-Pyrazol-5-yl)pyridin-3-yl)(5-(4,6-dimethylpyrimidin-2-yl)hexahydropyrrolo[3,4-c]pyrrol-2(1H)-yl)methanone]
31 | 7 nM | Cc1nc(N2CC3CN(C(=O)c4cccc(F)c4-c4ncccn4)CC3C2)nc(C)c1C (stereo not drawn) [Example 239, (3-Fluoro-2-(pyrimidin-2-yl)phenyl)(5-(4,5,6-trimethylpyrimidin-2-yl)hexahydropyrrolo[3,4-c]pyrrol-2(1H)-yl)methanone]
32 | 7 nM | Cc1nc(N2CC3CN(C(=O)c4cccc(F)c4-n4nccn4)CC3C2)nc(C)c1C (stereo not drawn) [Example 240, (3-Fluoro-2-(2H-1,2,3-triazol-2-yl)phenyl)(5-(4,5,6-trimethylpyrimidin-2-yl)hexahydropyrrolo[3,4-c]pyrrol-2(1H)-yl)methanone]
33 | 17 nM | COc1ccc(-n2nccn2)c(C(=O)N2CC3CN(c4nc(C)c(C)c(C)n4)CC3C2)c1 (stereo not drawn) [Example 241, (5-Methoxy-2-(2H-1,2,3-triazol-2-yl)phenyl)(5-(4,5,6-trimethylpyrimidin-2-yl)hexahydropyrrolo[3,4-c]pyrrol-2(1H)-yl)methanone]
34 | 39 nM | O=C(c1cccc(F)c1-n1nccn1)N1CC2CN(c3ncc4cc(F)ccc4n3)CC2C1 (stereo not drawn) [Example 242, (3-Fluoro-2-(2H-1,2,3-triazol-2-yl)phenyl)(5-(6-fluoroquinazolin-2-yl)hexahydropyrrolo[3,4-c]pyrrol-2(1H)-yl)methanone]
35 | 16 nM | O=C(c1cccc(F)c1-c1ncccn1)N1CC2CN(c3ncc4cc(F)ccc4n3)CC2C1 (stereo not drawn) [Example 243, (3-Fluoro-2-(pyrimidin-2-yl)phenyl)(5-(6-fluoroquinazolin-2-yl)hexahydropyrrolo[3,4-c]pyrrol-2(1H)-yl)methanone]
36 | 58 nM | COc1ccc(-n2nccn2)c(C(=O)N2CC3CN(c4cnc5cc(F)c(F)cc5n4)CC3C2)c1 (stereo not drawn) [Example 245, (5-(6,7-Difluoroquinoxalin-2-yl)hexahydropyrrolo[3,4-c]pyrrol-2(1H)-yl)(5-methoxy-2-(2H-1,2,3-triazol-2-yl)phenyl)methanone]
